The text below walks through data of patent US11180505B2, “Crystal form of PARP-1 inhibitor and preparation method therefor” (Jiangsu Hengrui Medicine Co., Ltd., priority 2017, dated 2021).

Where two headings read alike, the source gives them in different places.

A short description of series [1]: accelerated stability test of the crystal form (XRD comparison). To be noted: 40° C., relative humidity of 75%, 6 months, XRD compared with 0 month. It counts as physicochemical. The method, then: The sample of Example 1 was subjected to an accelerated stability test (40° C., relative humidity of 75%) for 6 months and then sent to XRD for testing, and compared with the original data to confirm whether the crystal form changed.
Among them, the XRPD pattern of crystal form A of the compound of formula I after 6 months of the accelerated stability test (40° C., relative humidity of 75%) is shown in FIG. 3. The comparative XRPD pattern of crystal form A of the compound of formula I after accelerated stability test is shown in FIG. 4.

A further series concerns the target PARP enzyme (Homo sapiens, UniProt P09874). To be noted: in vitro; cited from earlier work.
In a further series the test system is transplanted tumor. To be noted: nude-mouse transplanted tumor model; cited from earlier work.
For series [2] the following is noted: rat, in vivo; cited from earlier work.
The conditions of series [3]: dog, in vivo; cited from earlier work.

Sequence of PARP enzyme (P09874 whole entry): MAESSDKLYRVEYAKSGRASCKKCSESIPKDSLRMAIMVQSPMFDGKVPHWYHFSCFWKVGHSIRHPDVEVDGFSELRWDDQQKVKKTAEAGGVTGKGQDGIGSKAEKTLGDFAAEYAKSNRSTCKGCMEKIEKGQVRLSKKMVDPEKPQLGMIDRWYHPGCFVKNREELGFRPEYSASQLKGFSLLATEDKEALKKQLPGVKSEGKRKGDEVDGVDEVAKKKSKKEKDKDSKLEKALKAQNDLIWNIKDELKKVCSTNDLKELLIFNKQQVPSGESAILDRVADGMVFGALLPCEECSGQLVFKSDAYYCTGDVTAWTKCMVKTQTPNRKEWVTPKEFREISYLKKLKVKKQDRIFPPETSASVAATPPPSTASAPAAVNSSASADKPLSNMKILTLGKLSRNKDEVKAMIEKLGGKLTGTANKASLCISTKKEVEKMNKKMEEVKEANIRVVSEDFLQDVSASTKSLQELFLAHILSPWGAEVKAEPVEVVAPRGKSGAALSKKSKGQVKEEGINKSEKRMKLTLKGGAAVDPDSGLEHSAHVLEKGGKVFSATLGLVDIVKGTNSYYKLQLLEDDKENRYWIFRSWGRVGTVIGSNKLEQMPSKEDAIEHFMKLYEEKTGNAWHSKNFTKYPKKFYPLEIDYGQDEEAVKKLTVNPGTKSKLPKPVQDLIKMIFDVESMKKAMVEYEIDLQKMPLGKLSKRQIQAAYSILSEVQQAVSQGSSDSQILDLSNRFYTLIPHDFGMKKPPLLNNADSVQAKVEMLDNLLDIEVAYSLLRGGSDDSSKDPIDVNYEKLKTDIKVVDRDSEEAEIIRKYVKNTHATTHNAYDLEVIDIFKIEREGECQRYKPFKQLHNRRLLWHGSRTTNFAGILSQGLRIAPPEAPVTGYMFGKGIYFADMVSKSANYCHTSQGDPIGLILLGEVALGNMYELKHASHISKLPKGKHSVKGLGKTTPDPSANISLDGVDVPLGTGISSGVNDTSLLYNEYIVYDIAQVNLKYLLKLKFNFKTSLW

`O=C(c1cc(Cc2n[nH]c(=O)c3ccccc23)ccc1F)N1CCn2nc(C(F)(F)F)nc2C1` [Example 1]: the “crystal form change after accelerated stability test” value in series [1] is listed as “did not change”.

With `O=C(c1cc(Cc2n[nH]c(=O)c3ccccc23)ccc1F)N1CCn2nc(C(F)(F)F)nc2C1` [formula I], the “inhibition of the activity of PARP enzyme” value on PARP enzyme was “inhibit the activity of PARP enzyme significantly”. Besides, the “inhibition of tumor growth” value in the series with transplanted tumor is given as “inhibit tumor growth significantly”. Besides, the “safety (toxicological data)” value in series [2] and in series [3] was “has a corresponding safety” each time.
